Assays:
[1] = tested on: ABUTH; test: Pre-emergence herbicidal action against ABUTH; format: in vivo, Abutilon theophrasti
In short: (§1)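 Sandy loam pots, seeds covered with soil, then surface-treated with WP or EC formulations at 600–800 l/ha water plus 0.2% wetting agent. Greenhouse, 3 weeks. Percent damage vs untreated controls.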

[2] = tested on: ALOMY; test: Pre-emergence herbicidal action against ALOMY; format: in vivo, Alopecurus myosuroides; details: 80 g/ha, pre-emergence, scored visually after 3 weeks vs untreated controls (100% = plants have died, 0% = like control plants)
In short: as §1

[3] = tested on: AMARE; test: Pre-emergence herbicidal action against AMARE; format: in vivo, Amaranthus retroflexus
In short: as §1

[4] = tested on: AVEFA; test: Pre-emergence herbicidal action against AVEFA; format: in vivo, Avena fatua; details: 80 g/ha, pre-emergence
In short: as §1

[5] = tested on: ECHCG; test: Pre-emergence herbicidal action against ECHCG; format: in vivo, Echinochloa crus-galli
In short: as §1

[6] = tested on: MATIN; test: Pre-emergence herbicidal action against MATIN; format: in vivo, Matricaria inodora
In short: as §1

[7] = tested on: SETVI; test: Pre-emergence herbicidal action against SETVI; format: in vivo, Setaria viridis; details: dosage 80 g/ha
In short: as §1

[8] = tested on: VIOTR; test: Pre-emergence herbicidal action against VIOTR; format: in vivo, Viola tricolor
In short: as §1

[9] = tested on: DIGSA; test: Pre-emergence herbicidal action against DIGSA; format: in vivo, Digitaria sanguinalis
In short: as §1

[10] = tested on: ABUTH; test: Post-emergence herbicidal action against ABUTH; format: in vivo, Abutilon theophrasti; details: visual assessment about 3 weeks after treatment vs untreated controls
In short: (§2)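 Visual % rating (0% = as untreated, 100% = dead) ~3 wk after spraying one-leaf-stage plants grown in sandy loam; WP/EC in water at 600–800 l/ha, 0.2% wetting agent.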

[11] = tested on: AVEFA; test: Post-emergence herbicidal action against AVEFA; format: in vivo, Avena fatua; details: visual assessment about 3 weeks after treatment, 100% = plants have died, 0% = like control plants
In short: as §2

[12] = tested on: ECHCG; test: Post-emergence herbicidal action against ECHCG; format: in vivo, Echinochloa crus-galli
In short: as §2

[13] = tested on: MATIN; test: Post-emergence herbicidal action against MATIN; format: in vivo, Matricaria inodora
In short: as §2

[14] = tested on: PHBPU; test: Post-emergence herbicidal action against PHBPU; format: in vivo, Pharbitis purpurea
In short: as §2

[15] = tested on: POLCO; test: Post-emergence herbicidal action against POLCO; format: in vivo, Polygonum convolvulus; details: dosage 20 g/ha
In short: as §2

[16] = tested on: SETVI; test: Post-emergence herbicidal action against SETVI; format: in vivo, Setaria viridis
In short: as §2

[17] = tested on: PHBPU; test: Pre-emergence herbicidal action against PHBPU; format: in vivo, Pharbitis purpurea; details: Ipomoea purpurea, 504 h, dosage 80 g/ha
In short: as §1

[18] = tested on: POLCO; test: Pre-emergence herbicidal action against POLCO; format: in vivo, Polygonum convolvulus; details: Fallopia convolvulus, 504 h, dosage 80 g/ha
In short: as §1

[19] = tested on: STEME; test: Pre-emergence herbicidal action against STEME; format: in vivo, Stellaria media; details: Stellaria media, 504 h
In short: as §1

[20] = tested on: VERPE; test: Pre-emergence herbicidal action against VERPE; format: in vivo, Veronica persica; details: Veronica persica, 504 h, dosage 80 g/ha
In short: as §1

[21] = tested on: ALOMY; test: Post-emergence herbicidal action against ALOMY; format: in vivo, Alopecurus myosuroides; details: Alopecurus myosuroides, 504 h, dosage 20 g/ha, visual assessment about 3 weeks after treatment vs untreated controls
In short: as §2

[22] = tested on: AMARE; test: Post-emergence herbicidal action against AMARE; format: in vivo, Amaranthus retroflexus; details: Amaranthus retroflexus, 504 h, 20 g/ha, visual assessment about 3 weeks after treatment, 100% = plants have died, 0% = like control plants
In short: as §2

[23] = tested on: STEME; test: Post-emergence herbicidal action against STEME; format: in vivo, Stellaria media; details: Stellaria media, 504 h
In short: as §2

[24] = tested on: VERPE; test: Post-emergence herbicidal action against VERPE; format: in vivo, Veronica persica; details: Veronica persica, 504 h
In short: as §2

[25] = tested on: VIOTR; test: Post-emergence herbicidal action against VIOTR; format: in vivo, Viola tricolor; details: Viola tricolor, 504 h, 20 g/ha
In short: as §2

[26] = tested on: DIGSA; test: Post-emergence herbicidal action against DIGSA; format: in vivo, Digitaria sanguinalis; details: Digitaria sanguinalis, 504 h
In short: as §2

[27] = 80 g/ha, scored visually after 3 weeks vs untreated controls (100% = plants have died, 0% = like control plants)
[28] = Tripleurospermum inodorum, 504 h, dosage 20 g/ha

Compound: Cc1c(C(=O)Nc2nnnn2C)ccc(C(F)(F)F)c1C(=O)NCC1CC1 [Example 1-28]
- Pre-emergence action against ABUTH (herbicidal activity) [1, 27]: 100%
- Pre-emergence action against ABUTH (herbicidal activity in percent) ([1]; dosage 20 g/ha, scored visually after 3 weeks vs untreated controls, 100% = plants have died, 0% = like control plants): 90%
- Pre-emergence action against ALOMY (herbicidal activity) [2]: 90%
- Pre-emergence action against AMARE in % ([3]; 20 g/ha, scored visually after 3 weeks vs untreated controls, 100% = plants have died, 0% = like control plants): 100%
- Pre-emergence action against AMARE in % [3, 27]: 100%
- Pre-emergence action against AVEFA in % [4]: 100%
- Pre-emergence action against ECHCG in % ([5]; 80 g/ha): 100%
- Pre-emergence action against MATIN in % ([6]; dosage 20 g/ha): 100%
- Pre-emergence action against MATIN in % ([6]; dosage 80 g/ha): 100%
- Pre-emergence action against SETVI in % [7]: 100%
- Pre-emergence action against VIOTR in % ([8]; dosage 20 g/ha): 100%
- Pre-emergence action against VIOTR in % ([8]; dosage 80 g/ha): 100%
- Pre-emergence action against DIGSA in % ([9]; dosage 20 g/ha): 100%
- Pre-emergence action against DIGSA in % ([9]; dosage 80 g/ha): 100%
- Post-emergence action against ABUTH in % ([10]; dosage 5 g/ha): 80%
- Post-emergence action against ABUTH in % ([10]; dosage 20 g/ha): 80%
- Post-emergence action at 5 g/ha against AVEFA in % ([11]; 5 g/ha): 80%
- Post-emergence action at 20 g/ha against AVEFA in % ([11]; 20 g/ha): 80%
- Post-emergence action against ECHCG in % ([12]; dosage 5 g/ha): 80%
- Post-emergence action against ECHCG in % ([12]; dosage 20 g/ha): 90%
- Post-emergence action against MATIN in % ([13]; dosage 20 g/ha): 80%
- Post-emergence action against PHBPU in % ([14]; dosage 20 g/ha): 90%
- Post-emergence action against POLCO in % [15]: 80%
- Post-emergence action against SETVI in % ([16]; dosage 5 g/ha): 80%
- Post-emergence action against SETVI in % ([16]; dosage 20 g/ha): 80%

Compound: CCNC(=O)c1c(C(F)F)ccc(C(=O)Nc2nnnn2C)c1SC [Example 1-88]
- pest or weed control at 80 g/ha ([1]; Abutilon theophrasti, 504 h, 80 g/ha, scored visually after 3 weeks vs untreated controls (100% = plants have died, 0% = like control plants)): 100%
- pest or weed control at 20 g/ha ([1]; Abutilon theophrasti, 504 h, dosage 20 g/ha, scored visually after 3 weeks vs untreated controls, 100% = plants have died, 0% = like control plants, read-out: Pre-emergence action against ABUTH (herbicidal activity in percent)): 100%
- pest or weed control at 80 g/ha ([2]; Alopecurus myosuroides, 504 h): 90%
- pest or weed control at 20 g/ha ([3]; Amaranthus retroflexus, 504 h, 20 g/ha, scored visually after 3 weeks vs untreated controls, 100% = plants have died, 0% = like control plants): 100%
- pest or weed control at 80 g/ha ([3]; Amaranthus retroflexus, 504 h, 80 g/ha, scored visually after 3 weeks vs untreated controls, 100% = plants have died, 0% = like control plants): 100%
- pest or weed control at 80 g/ha ([4]; Avena fatua, 504 h): 90%
- pest or weed control at 20 g/ha ([5]; Echinochloa crus-galli, 504 h, 20 g/ha): 90%
- pest or weed control at 80 g/ha ([5]; Echinochloa crus-galli, 504 h, 80 g/ha): 100%
- pest or weed control at 20 g/ha [6, 28]: 100%
- pest or weed control at 80 g/ha ([6]; Tripleurospermum inodorum, 504 h, dosage 80 g/ha): 100%
- pest or weed control at 80 g/ha [17]: 90%
- pest or weed control at 80 g/ha [18]: 80%
- pest or weed control at 80 g/ha ([7]; Setaria viridis, 504 h): 100%
- pest or weed control at 20 g/ha ([19]; dosage 20 g/ha): 100%
- pest or weed control at 80 g/ha ([19]; dosage 80 g/ha): 100%
- pest or weed control at 80 g/ha [20]: 100%
- pest or weed control at 20 g/ha ([8]; Viola tricolor, 504 h, dosage 20 g/ha): 100%
- pest or weed control at 80 g/ha ([8]; Viola tricolor, 504 h, dosage 80 g/ha): 100%
- pest or weed control at 20 g/ha ([9]; Digitaria sanguinalis, 504 h, dosage 20 g/ha): 100%
- pest or weed control at 80 g/ha ([9]; Digitaria sanguinalis, 504 h, dosage 80 g/ha): 100%
- pest or weed control at 5 g/ha ([10]; Abutilon theophrasti, 504 h, dosage 5 g/ha): 90%
- pest or weed control at 20 g/ha ([10]; Abutilon theophrasti, 504 h, dosage 20 g/ha): 90%
- pest or weed control at 20 g/ha [21]: 80%
- pest or weed control at 20 g/ha [22]: 90%
- pest or weed control at 20 g/ha ([11]; Avena fatua, 504 h, 20 g/ha): 80%
- pest or weed control at 5 g/ha ([12]; Echinochloa crus-galli, 504 h, dosage 5 g/ha): 80%
- pest or weed control at 20 g/ha ([12]; Echinochloa crus-galli, 504 h, dosage 20 g/ha): 90%
- pest or weed control at 5 g/ha ([13]; Tripleurospermum inodorum, 504 h, dosage 5 g/ha): 80%
- pest or weed control at 20 g/ha [13, 28]: 80%
- pest or weed control at 5 g/ha ([14]; Ipomoea purpurea, 504 h, dosage 5 g/ha): 80%
- pest or weed control at 20 g/ha ([14]; Ipomoea purpurea, 504 h, dosage 20 g/ha): 90%
- pest or weed control at 20 g/ha ([15]; Fallopia convolvulus, 504 h): 80%
- pest or weed control at 5 g/ha ([16]; Setaria viridis, 504 h, dosage 5 g/ha): 80%
- pest or weed control at 20 g/ha ([16]; Setaria viridis, 504 h, dosage 20 g/ha): 90%
- pest or weed control at 20 g/ha ([23]; 20 g/ha): 90%
- pest or weed control at 5 g/ha ([23]; dosage 5 g/ha): 90%
- pest or weed control at 5 g/ha ([24]; 5 g/ha): 80%
- pest or weed control at 20 g/ha ([24]; 20 g/ha): 90%
- pest or weed control at 20 g/ha [25]: 80%
- pest or weed control at 5 g/ha ([26]; 5 g/ha): 90%
- pest or weed control at 20 g/ha ([26]; 20 g/ha): 90%

— patent US12655116B2, “Substituted isophthalic acid diamides” (Bayer Aktiengesellschaft, priority 2020, dated 2026)
